#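 1) Cells in 96-well plates. 2) Compound, 48 h, 5 concentrations. 3) Linear interpolation between surrounding doses. 4) Unreached endpoint = highest concentration. Definition used: TGI = concentration required for complete inhibition of growth.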
# What was measured:
# Assay in all cases: growth of human tumour cells (NCI), 48 h
# [1] = tested on: RPMI-8226 leukemia
# [2] = tested on: CAKI-1 renal
# [3] = tested on: IGROV1 ovarian
# [4] = tested on: MCF7 breast
# [5] = tested on: SW-620 colon
# [6] = tested on: SF-539 CNS
# [7] = tested on: HS 578T breast
# [8] = tested on: OVCAR-5 ovarian
# [9] = tested on: OVCAR-8 ovarian
# [10] = tested on: SK-MEL-2 melanoma
SMILES,TGI [1] [µM],TGI [2] [µM],TGI [3] [µM],TGI [4] [µM],TGI [5] [µM],TGI [6] [µM],TGI [7] [µM],TGI [8] [µM],TGI [9] [µM],TGI [10] [µM]
COc1nc2ncc([C@@H](OC(C)=O)[C@@H](COC(C)=O)OC(C)=O)nc2c(=O)[nH]1,> 100,> 100,> 100,> 100,> 100,> 100,> 100,> 100,> 100,> 100
Clc1ccc(CSCCc2ccncc2)cc1Cl,40.3,> 100,52.2,35.7,46.6,31.5,53.8,66.8,46,30.8
C[C@@H](Cl)[C@H]1CCCN(Cc2ccc(Br)cc2)C1,> 12.5,> 12.5,> 12.5,> 12.5,> 12.5,> 12.5,> 12.5,> 12.5,> 12.5,> 12.5
CSc1c(C#N)c(N)n(-c2ccc(C)cc2)c(=O)c1C#N,> 100,> 100,> 100,> 100,> 100,> 100,> 100,> 100,> 100,> 100

# — PubChem BioAssay (NCI)
